Patent US20240398817A1, “CARDIO- AND RENOSAFE ANTIDIABETIC THERAPY” (priority 2018, published 2024)

System: patients with type 2 diabetes at high vascular risk
Assay: Cardiovascular and Renal Outcomes Trial: linagliptin 5 mg once daily vs placebo on top of standard of care
Type: in vivo
Details: for Hazard ratio for hospitalised heart failure: vs placebo
Procedure: The effect of linagliptin on cardiovascular risk in adult patients with type 2 diabetes mellitus and with increased CV risk evidenced by a history of established macrovascular or renal disease (e.g. as defined herein) was evaluated in a multi-center, multi-national, randomized, double-blind parallel group trial. The trial compared the risk of experiencing a major adverse cardiovascular event (MACE) between linagliptin and placebo when these were added to and used concomitantly with standard of care treatments for diabetes (HbA1c), cardiovascular risk factors and renal disease.
The primary endpoint in this trial was the time to first occurrence of three point (3P) MACE. A major adverse cardiac event was defined as a cardiovascular death or a nonfatal myocardial infarction (MI) or a nonfatal stroke. The statistical analysis plan tested for non-inferiority for the occurrence of (3P) MACE. […] The secondary endpoint was a renal composite, defined as renal death or sustained end stage renal disease or sustained decrease of 40% or more in eGFR.
Type 2 diabetes patient with insufficient glycemic control (naïve or pre-treated with any antidiabetic background medication, excluding treatment with GLP-1 receptor agonists, DPP-4inhibitors or SGLT-2 inhibitors if ≥consecutive 7 days, e.g. having HbA1c 6.5-10%), and high risk of cardiovascular events, e.g. defined by: • albuminuria (micro or macro) and previous macrovascular disease: e.g. defined according to Condition I as indicated below; • and/or • impaired renal function: e.g. as defined according to Condition II as indicated below;
Background and aims: People with type 2 diabetes (T2D) are at increased risk for hospitalization for heart failure (hHF), particularly in the setting of concomitant cardiovascular (CV) and/or kidney disease. […] Here we present analyses of HF outcomes with the DPP-4 inhibitor linagliptin (LINA) vs. placebo (PBO) from a Cardiovascular and Renal Outcomes Trial assessing cardiovascular safety and renal microvascular outcome in patients with type 2 diabetes at high vascular risk, a large CV outcomes trial that enrolled participants with T2D at high risk for hHF due to concomitant CV and/or chronic kidney disease. Materials and methods: People with T2D and concomitant CV and/or kidney disease were randomized to receive LINA 5 mg, or PBO once daily (1:1), on top of standard of care. All hHF, CV outcomes, and deaths were centrally adjudicated, with individual and composite HF-related outcomes analyses comparing LINA vs. placebo. Investigator-reported HF-related adverse events, whether or not confirmed by adjudication, were also analyzed. A Cox proportional hazards model adjusting for region and history of HF was used for analyses of first events. Recurrent hHF events were analyzed using a negative binomial model.
Methods: The present Cardiovascular and Renal Outcomes Trial randomized people with T2D and i) concomitant CV disease with UACR >30 mg/g or ii) prevalent CKD (i.e. GFR <45 ml/min/1.73m2 and/or UACR >200 mg/g) to receive the DPP-4 inhibitor linagliptin (5 mg) or placebo once daily in a double-blind fashion. The primary CV endpoint was 3P-MACE, with a key secondary kidney endpoint (adjudicated ESKD, renal death, or sustained ≥40% decrease in eGFR from baseline) and other renal outcomes (including albuminuria and eGFR slope) also assessed. Subgroups were assessed by baseline kidney function (eGFR ≥/<45 ml/min/1.73m2and eGFR ≥/<30, 45 or 60 ml/min/1.73m2).
Adults with type 2 diabetes, HbA1c 6.5-10.0% inclusive, and high CV risk were eligible for inclusion. […] Macrovascular disease eligibility criteria was based on documented and confirmed history of myocardial infarction, coronary artery disease, stroke, carotid artery disease, or peripheral artery disease. Participants with end-stage kidney disease (ESKD), defined as eGFR <15 or requiring maintenance dialysis, were excluded.

[1] = ACE inhibitors/angiotensin receptor blockers No
[2] = ACE inhibitors/angiotensin receptor blockers Yes
[3] = Albuminuria and previous macrovascular disease plus eGFR 45-75 with an UACR >200 mg/g
[4] = Albuminuria and previous macrovascular disease plus renal impairment (eGFR 15-<45 with any UACR)
[5] = Albuminuria and previous macrovascular disease without eGFR >45 mL/min/1.73 m2
[6] = Angiotensin-converting enzyme inhibitors No
[7] = Angiotensin-converting enzyme inhibitors Yes
[8] = Angiotensin-converting enzyme inhibitors/angiotensin receptor blockers No
[9] = Angiotensin-converting enzyme inhibitors/angiotensin receptor blockers Yes
[10] = Blood pressure control SBP <140 mmHg
[11] = Blood pressure control SBP <160 mmHg
[12] = Blood pressure control SBP ≥140 mmHg
[13] = Blood pressure control SBP ≥160 mmHg

In the case of CC#CCn1c(N2CCC[C@@H](N)C2)nc2c1c(=O)n(Cc1nc(C)c3ccccc3n1)c(=O)n2C [Linagliptin, 1-[(4-methyl-quinazolin-2-yl)methyl]-3-methyl-7-(2-butyn-1-yl)-8-(3-(R)-amino-piperidin-1-yl)-xanthine], the “3-point MACE: hazard ratio vs placebo” value [1] is reported as 0.93, the “3-point MACE: patients with event/patients analyzed” value [1] is reported as 89/634 and the “Key secondary kidney outcome: hazard ratio vs placebo” value [1] is reported as 0.96. The “Key secondary kidney outcome: patients with event/patients analyzed” value [1] was 62/634, the “3-point MACE: hazard ratio vs placebo” value [2] was 1.06 and the “3-point MACE: patients with event/patients analyzed” value [2] was 345/2860. For the same compound, the “Key secondary kidney outcome: hazard ratio vs placebo” value [2] was 1.07, the “Key secondary kidney outcome: patients with event/patients analyzed” value [2] was 265/2860 and the “3-point MACE: hazard ratio vs placebo” value (Age <65 years) was 1.11. The “3-point MACE: patients with event/patients analyzed” value (Age <65 years) was 154/1467, the “Key secondary kidney outcome: hazard ratio vs placebo” value (Age <65 years) was 1.05 and the “Key secondary kidney outcome: patients with event/patients analyzed” value (Age <65 years) was 180/1467. The “Patients with event/patients analysed, hospitalised heart failure” value (“Patients with event/patients analysed” for short) (Age <65 years) was 67/1467, the “Hazard ratio for hospitalised heart failure” value (Age <65 years) was 0.87 and the “3-point MACE: hazard ratio vs placebo” value (Age ≥65 years) was 0.97. For the same compound, the “3-point MACE: patients with event/patients analyzed” value (Age ≥65 years) was 280/2027, the “Key secondary kidney outcome: hazard ratio vs placebo” value (Age ≥65 years) was 1.05 and the “Key secondary kidney outcome: patients with event/patients analyzed” value (Age ≥65 years) was 147/2027. The “Patients with event/patients analysed” value (Age ≥65 years) was 142/2027, the “Hazard ratio for hospitalised heart failure” value (Age ≥65 years) was 0.91 and the “3-point MACE: hazard ratio vs placebo” value [3] was 0.88. For the same compound, the “3-point MACE: patients with event/patients analyzed” value [3] was 119/647, the “Key secondary kidney outcome: hazard ratio vs placebo” value [3] was 0.99 and the “Key secondary kidney outcome: patients with event/patients analyzed” value [3] was 74/647. The “3-point MACE: hazard ratio vs placebo” value [4] was 1.12, the “3-point MACE: patients with event/patients analyzed” value [4] was 195/1462 and the “Key secondary kidney outcome: hazard ratio vs placebo” value [4] was 1.01. The “Key secondary kidney outcome: patients with event/patients analyzed” value [4] was 215/1462, the “3-point MACE: hazard ratio vs placebo” value [5] was 0.97 and the “Key secondary kidney outcome: hazard ratio vs placebo” value [5] was 1.22. For the same compound, the “3-point MACE: patients with event/patients analyzed” value (All patients) was 434/3493, the “Key secondary kidney outcome: patients with event/patients analyzed” value (All patients) was 327/3493 and the “Patients with event/patients analysed” value (All patients) was 209/3494. For the same compound, the “Hazard ratio for hospitalised heart failure” value (All patients) was 0.90, the “Patients with event/patients analysed” value [6] was 132/1920 and the “Hazard ratio for hospitalised heart failure” value [6] was 1.02. For the same compound, the “Patients with event/patients analysed” value [7] was 77/1574, the “Hazard ratio for hospitalised heart failure” value [7] was 0.75 and the “Patients with event/patients analysed” value [8] was 48/634. The “Hazard ratio for hospitalised heart failure” value [8] was 0.84, the “Patients with event/patients analysed” value [9] was 161/2860 and the “Hazard ratio for hospitalised heart failure” value [9] was 0.92. For the same compound, the “3-point MACE: hazard ratio vs placebo” value (Antiplatelet drugs No) was 1.10, the “3-point MACE: patients with event/patients analyzed” value (Antiplatelet drugs No) was 125/1102 and the “Key secondary kidney outcome: hazard ratio vs placebo” value (Antiplatelet drugs No) was 1.25. The “Key secondary kidney outcome: patients with event/patients analyzed” value (Antiplatelet drugs No) was 131/1102, the “Patients with event/patients analysed” value (Antiplatelet drugs No) was 61/1102 and the “Hazard ratio for hospitalised heart failure” value (Antiplatelet drugs No) was 0.94. The “3-point MACE: hazard ratio vs placebo” value (Antiplatelet drugs Yes) was 0.99, the “3-point MACE: patients with event/patients analyzed” value (Antiplatelet drugs Yes) was 309/2392 and the “Key secondary kidney outcome: hazard ratio vs placebo” value (Antiplatelet drugs Yes) was 0.94. For the same compound, the “Key secondary kidney outcome: patients with event/patients analyzed” value (Antiplatelet drugs Yes) was 196/2392, the “Patients with event/patients analysed” value (Antiplatelet drugs Yes) was 148/2392 and the “Hazard ratio for hospitalised heart failure” value (Antiplatelet drugs Yes) was 0.88. The “Patients with event/patients analysed” value (Atrial fibrillation No) was 154/3175, the “Hazard ratio for hospitalised heart failure” value (Atrial fibrillation No) was 0.86 and the “Patients with event/patients analysed” value (Atrial fibrillation Yes) was 55/319. The “Hazard ratio for hospitalised heart failure” value (Atrial fibrillation Yes) was 1.06, the “3-point MACE: hazard ratio vs placebo” value (Beta blockers No) was 0.87 and the “3-point MACE: patients with event/patients analyzed” value (Beta blockers No) was 134/1414. For the same compound, the “Key secondary kidney outcome: hazard ratio vs placebo” value (Beta blockers No) was 1.14, the “Key secondary kidney outcome: patients with event/patients analyzed” value (Beta blockers No) was 161/1414 and the “Patients with event/patients analysed” value (Beta blockers No) was 55/1414. For the same compound, the “Hazard ratio for hospitalised heart failure” value (Beta blockers No) was 0.95, the “3-point MACE: hazard ratio vs placebo” value (Beta blockers Yes) was 1.11 and the “3-point MACE: patients with event/patients analyzed” value (Beta blockers Yes) was 300/2080. For the same compound, the “Key secondary kidney outcome: hazard ratio vs placebo” value (Beta blockers Yes) was 0.97, the “Key secondary kidney outcome: patients with event/patients analyzed” value (Beta blockers Yes) was 166/2080 and the “Patients with event/patients analysed” value (Beta blockers Yes) was 154/2080. For the same compound, the “Hazard ratio for hospitalised heart failure” value (Beta blockers Yes) was 0.88, the “Patients with event/patients analysed” value [10] was 84/1750 and the “Hazard ratio for hospitalised heart failure” value [10] was 0.68. The “Patients with event/patients analysed” value [11] was 164/3017, the “Hazard ratio for hospitalised heart failure” value [11] was 0.84 and the “Patients with event/patients analysed” value [12] was 125/1744. The “Hazard ratio for hospitalised heart failure” value [12] was 1.15, the “Patients with event/patients analysed” value [13] was 45/477 and the “Hazard ratio for hospitalised heart failure” value [13] was 1.24. The “3-point MACE: hazard ratio vs placebo” value (Body mass index <30 kg/m^2) was 0.98, the “3-point MACE: patients with event/patients analyzed” value (Body mass index <30 kg/m^2) was 191/1516 and the “Key secondary kidney outcome: hazard ratio vs placebo” value (Body mass index <30 kg/m^2) was 1.14. For the same compound, the “Key secondary kidney outcome: patients with event/patients analyzed” value (Body mass index <30 kg/m^2) was 162/1516, the “Patients with event/patients analysed” value (Body mass index <30 kg/m^2) was 78/1516 and the “Hazard ratio for hospitalised heart failure” value (Body mass index <30 kg/m^2) was 0.98.
